Reference: ChEMBL document CHEMBL5360534, “Synthetic α-glucosidase inhibitors as promising anti-diabetic agents: Recent developments and future challenges” (Eur J Med Chem, 2023)

target: not listed separately; test: Inhibition of alpha-glucosidase (unknown origin) using p-NPG as substrate preincubated for 5 mins followed by substrate addition and measured after 30 mins by absorbance based analysis; parameters: species or system Homo sapiens

IC50 [µM]	SMILES
0.09	COc1ccccc1N1C(=O)/C(=C\c2ccc(F)cc2)S/C1=N\NC(=O)c1cc2ccccc2oc1=O
0.07	O=c1oc2ccccc2cc1-c1nn(C(Nc2ccccc2Oc2ccccc2NC(c2cccc(Br)c2)n2nc(-c3cc4ccccc4oc3=O)oc2=O)c2cccc(Br)c2)c(=O)o1 (configuration not stated)

target: T1, Alpha-glucosidase (Saccharomyces cerevisiae S288c, UniProt P53341+P38158+P07265); test: Inhibition of Saccharomyces cerevisiae alpha-glucosidase using p-nitrophenyl-alpha-D-glucopyranoside as substrate preincubated for 10 mins followed by substrate addition and measured after 30 mins by absorbance based analysis; assay type: protein assay

IC50 [µM]	SMILES
0.95	N#Cc1ccc2[nH]c(-c3nnc(Nc4ccc(Cl)c(Cl)c4)s3)cc2c1
2.78	O=c1oc2ccccc2cc1-c1nn(-c2ccccc2)cc1-c1nc(-c2ccccc2)c(-c2ccccc2)[nH]1
2.53	O=c1oc2ccc(Br)cc2cc1-c1nn(-c2ccccc2)cc1-c1nc(-c2ccccc2)c(-c2ccccc2)n1-c1ccc(Cl)cc1

target: not listed separately; test: Inhibition of alpha-glucosidase (unknown origin); parameters: species or system Homo sapiens

IC50 [µM]	SMILES
74	OC[C@H]1CC2C(N=NN2c2ccccc2)[C@@H](O)C1O (some centres not stated)
610	COc1ccc(-n2c(SCC(=O)N/N=C/c3ccc(Cl)cc3)nc3ccccc3c2=O)cc1
0.39	OCCN1C[C@H](O)[C@@H](O)[C@H](O)[C@H]1CO [MIGLITOL]
118	Cc1cccc(-n2c(-c3ccc(Cl)cc3)cc(C(=O)Nc3ccncc3)c2C)c1
13.2	CCOC(=O)CN1C(=O)/C(=N\NC(=O)c2ccccc2Cl)c2ccccc21
7.17	Cc1cc([N+](=O)[O-])ccc1-c1cnc(CC(C)C)s1
92.3	Cc1ccc(-c2cc(C(F)(F)F)nn2-c2ccc(S(=O)(=O)NC(=O)c3ccc(C)c([N+](=O)[O-])c3)cc2)cc1
60.5	O=C(N/N=C/c1ccc(Cl)cc1)c1cc(-c2ccccc2)[nH]n1
32	O=[N+]([O-])c1ccc(S(=O)(=O)Oc2ccc(/C=C/c3nc4ccccc4nc3O)cc2)cc1
2.31	CCOC(=O)C1=C(C)NC2=C(C(=O)CC(C)(C)C2)C1c1cc(OC)c(OC)cc1Br (configuration not stated)
1.49	COc1ccc(/C=N/n2c(COc3ccccc3)nnc2SCCO)cc1
14.5	CCOC(=O)CN1C(=O)/C(=N\NC(=O)c2ccc(Cl)cc2)c2ccccc21
24.7	O=C1C(=O)N(Cc2cn(CN3C(=O)S/C(=C\c4ccco4)C3=O)nn2)c2ccccc21
4.54	Fc1ccc(-c2cn3c(Cc4n[nH]c(=S)n4-c4cccc5ccccc45)csc3n2)cc1
8.15	COc1cc(OC)c(Br)c(-c2nc3ccc(Br)cc3[nH]2)c1
1.1	O=C(NNS(=O)(=O)c1ccccc1Cl)c1ccc(-c2nnc(-c3ccc([N+](=O)[O-])cc3)o2)cc1
2.5	O=[N+]([O-])c1ccccc1/C(CSc1nnc2c(n1)[nH]c1ccccc12)=N\c1nnc(-c2cccc(O)c2)s1
94.5	CCOP(=O)(OCC)C(Nc1ccc(C(F)(F)F)cc1I)c1cc(OC)c(O)c(OC)c1 (configuration not stated)

IC50 [µM]	SMILES
1.49	CN(C)c1ccc(-c2ccc(/C=N/n3c(COc4ccccc4)nnc3SCCO)cc2)cc1
1.49	OCCSc1nnc(COc2ccccc2)n1/N=C/c1ccc(O)cc1
4.3	O=C(CC(c1cc(Cl)ccc1Cl)c1c[nH]c2ccccc12)c1ccccc1 (configuration not stated)
426	OC[C@H]1NC[C@H](O)[C@@H](O)[C@@H]1O [DUVOGLUSTAT]
3.6	CCOC(=O)c1c(-c2ccc(/C=C3/SC(=O)NC3=O)cc2)c2ccccc2n1Cc1ccc(Cl)cc1
6.3	COc1ccc(-c2coc3cc(OCC(=O)c4ccc(Cl)cc4)ccc3c2=O)cc1
6.32	Nc1ccc2c(-c3nc4ccc(Br)c(O)c4s3)cc(=O)oc2c1
0.91	CCOC(=O)c1c(-c2ccc(/C=C3/SC(=S)NC3=O)cc2)c2ccccc2n1Cc1ccccc1
85	O=C(CSc1nc2ccccc2c(=O)n1-c1cccc(Br)c1)c1ccc([N+](=O)[O-])cc1
0.51	CCOC(=O)c1c(-c2ccc(/C=C3/SC(=S)NC3=O)cc2)c2ccccc2n1Cc1ccc(Cl)cc1
3.05	CC(C)Cc1ccc(C(C)c2nnc(SC/C(=N\c3ccc(Cl)c(Cl)c3)c3ccccc3)o2)cc1 (configuration not stated)
28	COc1cccc(/C=C/c2nc(-c3ccccc3)c3cc(Cl)ccc3n2)c1OS(=O)(=O)c1ccc([N+](=O)[O-])cc1
5.3	CCOC(=O)c1c(-c2ccc(/C=C3/SC(=O)NC3=O)cc2)c2ccccc2n1Cc1ccccc1
0.8	Nc1nnc(-c2cccc3cccc(O)c23)o1
1.02	Cc1ccoc1-c1cccc(/C=N/NC(=O)c2ccc(-c3cc(=O)c4cc(O)ccc4o3)cc2)c1
0.5	Oc1c(Cl)cc(Cl)cc1/C=N/c1nc(-c2ccc(-c3ccccc3)cc2)cs1
45.8	CCn1cc(C(=O)OCc2ccccc2Br)c(=O)c2cc(F)c(N3CCN(Cc4ccccc4Br)CC3)nc21

target: T1, Alpha-glucosidase; test: Inhibition of Saccharomyces cerevisiae alpha-glucosidase using pNPG as substrate preincubated for 10 mins followed by substrate addition and measured after 20 mins by spectrophotometric analysis; assay type: protein assay

IC50 [µM]	SMILES
85	O=C(CSC(=S)Nc1cccc([N+](=O)[O-])c1)c1cc2ccccc2oc1=O
256	Fc1ccc(C2=NOC(c3ccccc3)N2c2ccc(F)cc2)cc1 (configuration not stated)
295	COc1ccc(C2=NOC(c3ccccc3)N2c2ccc(OC)cc2)cc1 (configuration not stated)
16.4	Cc1ccccc1Cn1cc(COc2ccc(C(c3c(O)c4ccccc4oc3=O)C3C(=O)Cc4ccccc4C3O)cc2)nn1 (configuration not stated)
20	Cc1ccc(C(c2c(N)c3ccccc3oc2=O)c2c(N)c3ccccc3oc2=O)cc1
90	O=C(COc1ccc(-c2nc(-c3ccccc3)c(-c3ccccc3)[nH]2)cc1)Nc1cccc(Br)c1
13	O=C1Cc2ccccc2C(O)C1C(c1ccc(OCc2cn(Cc3ccccc3Cl)nn2)cc1)c1c(O)c2ccccc2oc1=O (configuration not stated)

target: T1, Alpha-glucosidase; test: Inhibition of Saccharomyces cerevisiae alpha-glucosidase; assay type: protein assay

IC50 [µM]	SMILES
13.09	Clc1ccc(/C=N/Nc2nnc(-c3ccccc3)c(-c3ccccc3)n2)cc1
24.77	O=c1cc(-c2ccc(OCc3cn(Cc4ccc(Cl)cc4)nn3)cc2)oc2ccccc12
85.2	O=C(N/N=C\c1ccccc1OCCCN1C(=O)c2ccccc2C1=O)c1cc2ccccc2oc1=O
94.2	O=C(COc1ccc2ccc(=O)oc2c1)N/N=C\c1cc([N+](=O)[O-])ccc1OCCCN1C(=O)c2ccccc2C1=O
29.91	Cc1cc2nc(NC(=O)CN3C(=O)S/C(=C\c4ccc(Cl)cc4)C3=O)sc2cc1C
24.37	O=c1cc(-c2ccc(OCc3cn(Cc4cc(Cl)ccc4Cl)nn3)cc2)oc2ccccc12

target: T1, Alpha-glucosidase; test: Competitive inhibition of Saccharomyces cerevisiae alpha-glucosidase using pNPG as substrate assessed as inhibition constant preincubated for 15 mins followed by substrate addition and measured after 20 mins by spectrophotometric analysis; assay type: protein assay

Ki [µM]	SMILES
56	O=C(Cn1c(-c2ccc(Cl)cc2)nc2ccccc2c1=O)N/N=C/c1cn(-c2ccccc2)nc1-c1ccc(Br)cc1
22.4	Cc1ccc(C(c2c(N)c3ccccc3oc2=O)c2c(N)c3ccccc3oc2=O)cc1
87	Cc1ccc(-n2cc(/C=N/NC(=O)Nc3ccccc3)c(-c3ccc([N+](=O)[O-])cc3)n2)cc1
86.3	O=C(COc1ccc(-c2nc(-c3ccccc3)c(-c3ccccc3)[nH]2)cc1)Nc1cccc(Br)c1
12	Cc1ccc(-c2nc3c(C(=O)Nc4ccccc4)c(Nc4ccccc4)nn3c(-c3ccc(Br)cc3)c2N)cc1

target: T1, Alpha-glucosidase; test: Inhibition of Saccharomyces cerevisiae alpha-glucosidase using p-nitrophenyl-alpha-D-glucopyranoside as substrate preincubated for 5 mins followed by alpha-glucosidase addition and measured after 15 mins by UV-visible spectrophotometric analysis; assay type: protein assay

IC50 [µM]	SMILES
4.7	O=C(NNS(=O)(=O)c1ccc(Br)cc1)c1cc2cc(F)ccc2[nH]1
11.02	O=C(c1ccccc1)c1ccc2nc(-c3ccc(O)cc3)[nH]c2c1
3.2	O=C(NNS(=O)(=O)c1cccc(F)c1)c1cc2cc(F)ccc2[nH]1
7.4	O=C(NNS(=O)(=O)c1cccc(Cl)c1)c1cc2cc(F)ccc2[nH]1
6.2	N#Cc1ccc(S(=O)(=O)NNC(=O)c2cc3cc(F)ccc3[nH]2)cc1
3.2	O=C(NNS(=O)(=O)c1ccccc1F)c1cc2cc(F)ccc2[nH]1

target: not listed separately; test: Inhibition of alpha-glucosidase (unknown origin) using p-nitrophenyl-alpha-D-glucopyranoside as substrate preincubated for 5 mins followed by substrate addition and measured after 5 mins by spectrophotometric analysis; parameters: species or system Homo sapiens

IC50 [µM]	SMILES
1.6	O=S(=O)(NCCc1c[nH]c2ccccc12)c1cc(F)ccc1Cl
2.2	COc1ccc(/C(CSc2nc3ccccc3[nH]2)=N/N=C/c2ccc(OC)cc2O)cc1
2.3	Oc1ccc(/C=N/c2nnc(-c3ccc(Cl)cc3)s2)cc1
2.7	Nc1nnc(-c2ccc(O)cc2)s1

target: T1, Alpha-glucosidase; test: Inhibition of Saccharomyces cerevisiae alpha-glucosidase using p-nitrophenyl-alpha-D-glucopyranoside as substrate preincubated for 15 mins followed by substrate addition and measured after 30 mins by spectrophotometric analysis; assay type: protein assay

IC50 [µM]	SMILES
5.98	O=C1Nc2ccccc2C1(c1cn(Cc2ccccc2F)c2ccccc12)c1cn(Cc2ccccc2F)c2ccccc12
2.85	COc1ccc(-c2csc(NC(=O)CSc3nnc(-c4ccc(Br)cc4)c(-c4ccc(Br)cc4)n3)n2)cc1
19.6	Cc1ccc(-c2cc(-c3ccc(Br)cc3)nc(SCc3ccc(Cl)cc3)n2)cc1
12.8	CC(=O)CC(c1ccc(Br)cc1)C(C(=O)Nc1ccccn1)C(=O)Nc1ccccn1 (configuration not stated)
20.7	CC(C)(C)c1ccc(Cn2cc(CCS3=Nc4cc(Cl)ccc4C3)nn2)cc1 (configuration not stated)

target: T1, Alpha-glucosidase; test: Inhibition of Saccharomyces cerevisiae alpha-glucosidase using p-nitrophenyl glucopyranoside as substrate preincubated for 10 mins followed by substrate addition and measured after 20 mins by spectrophotometric analysis; assay type: protein assay

IC50 [µM]	SMILES
40.7	COc1cccc2cc(-c3nnc(SCc4cn(CC(=O)NCc5ccc(F)cc5)nn4)o3)oc12
16.4	Nc1c(-c2ccccc2)nc2nc3cc(Cl)c(Cl)cc3n2c1-c1ccccc1
192.3	COc1ccc(CCn2c(SCc3cn(Cc4ccc(Br)cc4)nn3)nc3ccccc3c2=O)cc1OC
60.5	O=C(Cn1c(-c2ccc(Cl)cc2)nc2ccccc2c1=O)N/N=C/c1cn(-c2ccccc2)nc1-c1ccc(Br)cc1
45.3	O=C(Cn1cc(COc2ccc(-c3nc4ccccc4c(=O)[nH]3)cc2)nn1)Nc1ccccc1
65.1	Cc1ccc(-n2cc(/C=N/NC(=O)Nc3ccccc3)c(-c3ccc([N+](=O)[O-])cc3)n2)cc1
95	CCOC(=O)c1c(-c2ccccc2)nn2c1C=C(c1ccc(O)c(OC)c1)/C2=N/C1CCCCC1
15.2	Cc1ccc(-c2nc3c(C(=O)Nc4ccccc4)c(Nc4ccccc4)nn3c(-c3ccc(Br)cc3)c2N)cc1

target: Alpha-glucosidase (Saccharomyces cerevisiae S288c) (UniProt P53341+P38158+P07265); test: Potency index, ratio of acarbose IC50 to test compound IC50 for inhibition of Saccharomyces cerevisiae alpha-glucosidase; assay type: protein assay

Ratio IC50	SMILES
35	O=c1cc(-c2ccc(OCc3cn(Cc4ccc(Cl)cc4)nn3)cc2)oc2ccccc12
35	O=c1cc(-c2ccc(OCc3cn(Cc4cc(Cl)ccc4Cl)nn3)cc2)oc2ccccc12

species on record: Homo sapiens; test: Potency index, ratio of acarbose IC50 to test compound IC50 for inhibition of alpha-glucosidase (unknown origin)

Ratio IC50	SMILES
2	CCOC(=O)CN1C(=O)/C(=N\NC(=O)c2ccccc2Cl)c2ccccc21
2	CCOC(=O)CN1C(=O)/C(=N\NC(=O)c2ccc(Cl)cc2)c2ccccc21
47	Fc1ccc(-c2cn3c(Cc4n[nH]c(=S)n4-c4cccc5ccccc45)csc3n2)cc1
15	O=[N+]([O-])c1ccccc1/C(CSc1nnc2c(n1)[nH]c1ccccc12)=N\c1nnc(-c2cccc(O)c2)s1

target: not listed separately; test: Inhibition of Saccharomyces cerevisiae alpha-glucosidase type I using p-nitrophenyl-alpha-D-glucopyranoside as substrate preincubated for 10 mins followed by substrate addition and measured after 30 mins by spectrophotometric analysis

IC50 [µM]	SMILES
83.9	CS(=O)(=O)n1c(=O)c2ccccc2n2ncnc12
12.7	O=c1c2ccccc2n2ncnc2n1OCc1ccccc1
45.6	C/C=C/n1c(=O)c2ccccc2n2ncnc12
28.5	CCn1c(=O)c2ccccc2n2ncnc12
72.3	CSn1c(=O)c2ccccc2n2ncnc12
